Results on three compounds are retold here after patent publication US9260388B2, “Process for preparing alkyl pyroglutamic acids” (DOW GLOBAL TECHNOLOGIES LLC, priority 2011, dated 2016).

A value given as a limit tells only on which side of the number the result lay.

Holding throughout (assay type): physicochemical
The nature of series [1]: Water solubility of sodium salts. The settings on record: for pH: pH of the sodium salt solution after neutralization. As to the method: Selected N-alkyl pyroglutamic acids are converted into their sodium salt by neutralizing them in water with sodium hydroxide. In general, a known amount of sample is placed in a vial and a known amount of water is added. Sample is neutralized with 25 wt % sodium hydroxide in water until pH is >7. Mild heating (50° C.) is applied when necessary to aid dissolution. The final mass is recorded. The weight percent of the solution is determined by mass of the sodium salt over the total mass of solution, and multiplying by 100. The pH of the solution is recorded after neutralization. No effort was done to prepare a saturated solution.

Series [2] can be described thus: Shake foam test (foam height). The following applies: sodium salt, 0.1 wt % solution, shaken 20 times, t=0, average of three replicates. As to the method: Foaming profile of the N-alkyl pyroglutamates are evaluated using a shake foam test, and evaluated against sodium laureth sulfate. For each sample, a 0.1 wt % solution is prepared by diluting 50 mg active to 50 g in water. The 0.1 wt % solution is added to a 100 mL graduated cylinder and capped. The cylinder is shaken by hand 20 times, each time the cylinder is inverted and brought back to an upright position. Foam height (in mL) is defined as the highest point of the top layer of the foam in the graduated cylinder. If the top of the foam was not flat, the midpoint of the top of the foam was reported. Foam height is read immediately after the solution settled (t=0). Three replicates are done for each sample, and the reported foam height (in mL) is the average reading of the three replicates.

Series [3] in a line: Critical micelle concentration (Kibron CMC) and surface tension, Kibron Delta-8 multichannel microtensiometer. The following applies: for Kibron CMC: sodium salt in water, twelve two-fold dilutions starting at 1 wt %; for Surface Tension (1%): sodium salt, 1 wt % in water. As to the method: The critical micelle concentration (Kibron CMC) and surface tension of the N-alkyl pyroglutamic acids (as Na^+ salts) and related commercial surfactants were evaluated. For each sample, a total of twelve dilutions starting at 1 wt % were prepared, reducing the concentration in each dilution by half by taking an aliquot of the previous dilution and adding the same amount of water. The surface tension of all 12 dilutions was measured using a Kibron Delta-8 multichannel microtensiometer. Sample volume for each analysis was 50 μL.

With `CCCCCC(CCC)CN1C(=O)CCC1C(=O)O` (stereo not shown) [Example 2], the pH in series [1] worked out at 7.3. Moreover, the “Shake Foam t = 0” value in series [2] is on record as 11 mL. Besides, in series [3], the “Kibron CMC” value is given as above 10000 ppm and the “Surface Tension (1%)” value is on record as 34 Dynes/cm.
For `CCCCCCCCCCC(CCCCCCCC)CN1C(=O)CCC1C(=O)O` (stereo not shown) [Example 4], the pH in series [1] is reported as 7.1. The Solubility in series [1] (sodium salt in water, neutralized with NaOH, no saturated solution prepared) was 15.4 wt %. The “Shake Foam t = 0” value in series [2] came to 29 mL. In addition, in series [3], the “Kibron CMC” value is on record as 78 ppm and the “Surface Tension (1%)” value worked out at 29 Dynes/cm.
For the compound `CCC(CCCC(C)CCCC(C)C)CCN1C(=O)CCC1C(=O)O` (stereo not shown) [Example 1], the pH in series [1] is 10.0. The “Shake Foam t = 0” value in series [2] was 36 mL. Moreover, in series [3], the “Kibron CMC” value is reported as 625 ppm and the “Surface Tension (1%)” value amounted to 38 Dynes/cm.
